Results reported in US20240189275A1, “METHODS FOR TREATING NON-ALCOHOLIC STEATOHEPATITIS WITH A SCD-1 INHIBITOR” (Lipidio Pharmaceuticals, Inc., priority 2021, published 2024).

Columns and labels:
[1] = test system: diet-induced and biopsy-confirmed mouse model of NASH; assay: Liver histology (NAS, fibrosis stage, quantitative histomorphometry) in GAN diet-induced, biopsy-confirmed mouse model of NASH; format: in vivo, mice; conditions: for number of mice with worsening (higher score) of Fibrosis Stage: placebo gel 7/16; for liver content (in mg) of α-SMA, antibody-stained sections / liver Galectin-3 content (in mg), antibody-stained sections / liver lipid content (hematoxylin and eosin-stained sections): week 12; for number of animals experiencing an improvement in NAS: topical, p<0.05 compared to placebo
Description: (§1) The effects of topical treatment of Compound 25 to 10% of the skin for 12 weeks were assessed in a diet-induced and biopsy-confirmed mouse model of NASH described in the literature (World Journal of Gastroenterology (2019), 25(33), 4904-4920). In this model, NASH is induced by maintaining mice on a high fat-high fructose diet (the so-called GAN [Novel Gubra Amylin] diet) for 33 weeks prior to drug administration. […] This biopsy is then compared to a post-drug treatment biopsy to assess changes in NAFLD activity and Fibrosis Stage. Qualitative scoring is completed with quantitative immunohistochemistry to assess effects on hepatic steatosis, inflammation (Galectin-3), fibrosis (Collagen 1a1 and Picro-Sirius Red Staining) and stellate cell activation (α-SMA). RNASeq was also performed on terminal liver samples from mice treated with placebo gel and compound 25 gel to examine key candidate genes involved in extracellular matrix formation (ECM) and fibrogenesis. Parametric (ANOVA) and non-parametric (Fisher's or Chi Square) statistics were used to analyze the data as appropriate.
(§2) SCD-1 inhibitor compounds can be tested in vivo in a rodent diet-induced model of biopsy-confirmed NASH. In this experiment, the NASH phenotype is induced by maintaining mice upon a GAN diet for 33 weeks prior to drug administration (BMC Gastroenterology (2020), 20(1), 210; World Journal of Gastroenterology (2019), 25(33), 4904-4920). A biopsy is performed prior to drug treatment to eliminate any mice that have not developed the NASH phenotype and to mirror clinical trial design where liver biopsies prior to and at the end of treatment are compared. In addition to pre- and post-treatment histological analyses, metabolic assessments such as body weight, body composition, food intake and clinical chemistries are measured during and following the 12-week study dosing period.
(§3) Mice were dosed topically to 10% of the total BSA of the skin with either a placebo gel or a gel containing compound 25 (at a concentration of 0.05%, 0.25%, 0.75%, or 2.5%). (World Journal of Gastroenterology (2018), 24(2), 179-194).
(§4) Animals and Diet: The Danish Animal Experiments Inspectorate approved all experiments which were conducted using internationally accepted principles for the use of laboratory animals under the personal license #2013-15-2934-00784. B6.V-Lepob/JRj (ob/ob) mice (6 weeks old) were from Janvier Labs (Le Genest Saint Isle, France) and housed in a controlled environment (12h light/dark cycle, lights on at 3 AM, 21+2° C., humidity 50+10%). Each animal was identified by an implantable subcutaneous microchip (PetID Microchip, E-vet, Haderslev, Denmark). Mice had ad libitum access to tap water and the Gubra Amylin NASH diet [GAN diet; 40 kcal-% fat (of these 0% trans-fat and 46% saturated fatty acids by weight), 22% fructose, 10% sucrose, 2% cholesterol; D09100310, Research Diets]. Mice were maintained on the GAN diet for 33 weeks prior to study initiation to induce NASH and remained on the GAN diet during the 12 weeks of drug administration. Mice were weighed daily during the study and body composition was measured by non-invasive EchoMRI scanning using EchoMRI-900 (EchoMRI, Houston, TX).
Liver Biopsy: After 33 weeks of GAN diet feeding, mice were anesthetized with isoflurane (2%-3%, in 100% oxygen), a small abdominal incision in the midline was made, and the left lateral lobe of the liver was exposed. A cone-shaped wedge of liver tissue (50-100 mg) was excised from the distal part of the lobe. The cut surface of the liver was closed by electrosurgical bipolar coagulation using an electrosurgical unit (ERBE VIO® 100C, ERBE, Marietta, GA, United States). The liver was returned to the abdominal cavity, the abdominal wall was sutured and skin stapled. Carprofen (5 mg/kg, i.p.) was administered at the time of surgery and at post-operative day one and two. […]

human SCD-1 = molecular target: T1, human SCD-1 (Homo sapiens, UniProt O00767); assay: Inhibition of SCD-1 activity in human liver microsomes (13C-stearoyl-CoA to 13C-oleoyl-CoA, LC/MS/MS); format: biochemical; conditions: FIG. 1, IC50 value not given
T1 construct: human liver microsome (HLM, InVitroCYP™ H-class, Pool of 25 donors BiolVT); tissue BiolVT InVitroCYP™ H-class; host or cells: human liver microsomes, pool of 25 donors
T1 sequence (O00767 1-359): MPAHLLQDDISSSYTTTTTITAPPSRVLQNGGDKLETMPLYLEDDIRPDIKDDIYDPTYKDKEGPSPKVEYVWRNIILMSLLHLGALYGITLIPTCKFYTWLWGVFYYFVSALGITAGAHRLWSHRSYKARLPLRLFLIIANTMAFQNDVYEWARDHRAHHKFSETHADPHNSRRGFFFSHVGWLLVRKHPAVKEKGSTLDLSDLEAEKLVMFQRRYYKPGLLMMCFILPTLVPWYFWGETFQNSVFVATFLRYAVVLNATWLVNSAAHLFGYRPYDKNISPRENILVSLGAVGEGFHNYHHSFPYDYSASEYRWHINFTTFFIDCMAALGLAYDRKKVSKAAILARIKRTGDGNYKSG
Description: (§5) The ability of the compound to inhibit isolated SCD-1 enzyme activity can be evaluated in rat and human microsomes as described below (Oncotarget (2018), 9, 3-20). The compound is added as various concentrations to the liver microsomes and incubated for 5 minutes with ^13C-labelled Stearoyl CoA, which is the substrate for SCD-1. The activity of SCD-1 is then determined by the conversion of ^13C-Steoryl CoA to ^13C-Oleoyl CoA using an LC/MS/MS method. The ability of the compound to inhibit SCD-1 activity is expressed as an IC50.
(§6) Compound 25 is dissolved in DMSO to prepare a 10 mM stock solution.
(§7) Rat liver microsomes (RLM, BiolVT) and human liver microsome (HLM, InVitroCYP™ H-class, Pool of 25 donors BiolVT) solutions are prepared by adding the microsomes to 100 mM sodium phosphate, pH 7.4, at a protein concentration of 1.00 mg/mL.
(§8) Compound 25 stock solution is then added to the RLM and HLM solution at an initial concentration of 0.2 μM for direct inhibition. Each LM/Inhibitor Solution is added to blank LM solution to give 8 concentrations prepared by a 3-fold serial dilution. These diluted LM/inhibitor solutions are then added to a reaction buffer containing 2 mM NADH, 120 μM Coenzyme A, 2 mM ATP, 2 mM DTT, and 10 mM MgCl2 in 100 mM sodium phosphate, pH 7.4.
(§9) A Stearoyl-^13Cis-CoA solution in 10% methanol in water is prepared at a final concentration of 3.00 mM. […]

rat SCD-1 = molecular target: T2, rat SCD-1 (Rattus norvegicus, UniProt P07308); assay: Inhibition of SCD-1 activity in rat liver microsomes (13C-stearoyl-CoA to 13C-oleoyl-CoA, LC/MS/MS); format: biochemical; conditions: FIG. 1, IC50 value not given
T2 construct: Rat liver microsomes (RLM, BiolVT); tissue BiolVT; host or cells: rat liver microsomes
T2 sequence (P07308 1-358): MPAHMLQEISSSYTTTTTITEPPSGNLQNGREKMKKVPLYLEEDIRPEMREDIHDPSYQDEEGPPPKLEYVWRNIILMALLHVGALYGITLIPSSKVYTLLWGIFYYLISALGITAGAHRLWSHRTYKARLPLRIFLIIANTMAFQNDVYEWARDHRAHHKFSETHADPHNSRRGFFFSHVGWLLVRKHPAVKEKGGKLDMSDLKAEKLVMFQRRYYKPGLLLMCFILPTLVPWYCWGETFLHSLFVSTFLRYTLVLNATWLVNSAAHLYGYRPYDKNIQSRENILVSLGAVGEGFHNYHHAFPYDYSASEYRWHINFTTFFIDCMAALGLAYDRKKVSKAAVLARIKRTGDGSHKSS
Description: as §5, §6, §7, §8, §9

[2] = test system: liver genes involved in inflammation, fibrogenesis, extracellular matrix formation and NASH progression; assay: RNASeq of terminal liver samples (mRNA expression) in mouse model of NASH; format: in vivo, mice
Description: as §1, §2, §3, §4

[3] = Body weight and body composition (EchoMRI) in GAN diet-induced, biopsy-confirmed mouse model of NASH; format: in vivo, mice; conditions: 12 weeks
Description: as §1
as §2, with “A biopsy is performed prior to drug treatment to eliminate any mice that have not developed the NASH phenotype and to mirror clinical trial design where liver biopsies prior to and at the end of treatment are compared.” left out, “period. […]” for “period.”
(§10) Animals and Diet: The Danish Animal Experiments Inspectorate approved all experiments which were conducted using internationally accepted principles for the use of laboratory animals under the personal license #2013-15-2934-00784. […] Mice were weighed daily during the study and body composition was measured by non-invasive EchoMRI scanning using EchoMRI-900 (EchoMRI, Houston, TX).

[4] = test system: diet-induced and biopsy-confirmed mouse model of NASH; assay: Plasma ALT and AST in mouse model of NASH; format: in vivo, mice; conditions: for plasma alanine transaminase (ALT) (units/L) / plasma aspartate transaminase (AST) (units/L): week 12
Description: as §2, §3, §4
Plasma Biochemistry Analysis: Blood samples are collected in heparinized tubes and plasma is separated and stored at −80° C. until analysis. Alanine aminotransferase and aspartate aminotransferase (FIG. 12) were measured using commercial kits (Roche Diagnostics) on the Cobas c 501 autoanalyzer according to the manufacturer's instructions.

[5] = test system: diet-induced and biopsy-confirmed mouse model of NASH; assay: Terminal hepatic triglyceride content in mouse model of NASH; format: in vivo, mice; conditions: 2.5% gel, week 12; p<0.001
Description: as §2, §3
as §10, with “TX). […]” for “TX).”

[6] = 0.75% and 2.5% dose groups (group not specified), 16 animals per group, 12 weeks
[7] = conclusion, topical to 10% of BSA, dose not specified
[8] = 2.5% gel, topical to 10% of skin, p<0.001

inhibition of human SCD-1 activity (human SCD-1): concentration-dependent inhibition
inhibition of rat SCD-1 activity (rat SCD-1): concentration-dependent inhibition
Compound: O=C(COc1ccc(CO)cc1)N1CC[C@H](Oc2ccccc2C(F)(F)F)C1 [Compound 25, (S)-2-(4-(hydroxymethyl)phenoxy)-1-(3-(2-(trifluoromethyl)phenoxy)pyrrolidin-1-yl)ethan-1-one]
number of mice with worsening (higher score) of Fibrosis Stage ([1]; 0.25% gel, 12 weeks): 2/16
liver content (in mg) of α-SMA, antibody-stained sections ([1]; 0.25% gel, p<0.05): significantly reduced
proportion of mice exhibiting any worsening of the fibrosis stage ([1]; 0.25%, 0.75% and 2.5% gel groups, 12 weeks, placebo almost 50%): 6-12%
animals showing a higher NAS score [1, 6]: none
animals with a lower NAS score [1, 6]: 15/16
liver content of Collagen 1a1 (in mg), antibody-stained sections ([1]; 0.75% gel, 12 weeks, p<0.05): significant reduction
liver content of Picro-Sirius Red (in mg) ([1]; 0.75% gel, 12 weeks, p<0.05): significantly reduced
number of mice with worsening (higher score) of Fibrosis Stage ([1]; 0.75% gel, 12 weeks): 2/16
number of animals experiencing an improvement in NAS ([1]; 0.75% gel, 12 weeks): significantly greater
liver content (in mg) of α-SMA, antibody-stained sections ([1]; 0.75% gel, p<0.01): significantly reduced
liver Galectin-3 content (in mg), antibody-stained sections ([1]; 0.75% gel, p<0.05): significantly reduced
liver lipid content (hematoxylin and eosin-stained sections) ([1]; 0.75% gel, p<0.05): significantly reduced
liver content of Picro-Sirius Red (in mg) ([1]; 2.5% gel, 12 weeks, p<0.001): significantly reduced
liver content of Collagen 1a1 (in mg), antibody-stained sections ([1]; 2.5% gel, 12 weeks, p<0.01): significant reduction
number of mice with worsening (higher score) of Fibrosis Stage ([1]; 2.5% gel, 12 weeks): 1/16
number of animals experiencing an improvement in NAS ([1]; 2.5% gel, 12 weeks): significantly greater
liver Galectin-3 content (in mg), antibody-stained sections ([1]; 2.5% gel, p<0.001): significantly reduced
liver content (in mg) of α-SMA, antibody-stained sections ([1]; 2.5% gel, p<0.001): significantly reduced
liver lipid content (hematoxylin and eosin-stained sections) ([1]; 2.5% gel, p<0.001): significantly reduced
liver content of Collagen 1a1 (in mg), antibody-stained sections ([1]; all doses (0.05%, 0.25%, 0.75%, 2.5% gel), 12 weeks): clear trend in reduction
multiple quantitative markers of collagen (Collagen 1a1 immunohistochemistry; PSR staining; Collagen 1a1, 3a1, 4a1 mRNA) ([1]; conclusion, dose not specified): decreased
α-SMA expression (stellate cell activation) ([1]; conclusion, dose not specified): decreased
fibrosis stage [1, 7]: prevented worsening
hepatic steatosis [1, 7]: improved
inflammation [1, 7]: decreased
overall NAFLD Activity Score or NAS [1, 7]: improved
liver Galectin-3 mRNA ([2]; 2.5% gel): Reduced
liver mRNA expression of genes associated with NASH progression and poor prognosis ([2]; 2.5% gel, Aldh8a1, Aldh7a1, Annexin A2, CD36, CNBP, CIDEC, Cyclin D1, Fasn, Hsbp1, KIF6, Nfe212, Perilipin 2): significant regulation
liver mRNA expression of genes involved in hepatic inflammation ([2]; 2.5% gel, Chemokine Ligand 2, Chemokine Ligand 5, Epithelial Cell Adhesion Protein, Cluster of Differentiation 68, Integrin X): significantly downregulated
liver mRNA expression of genes involved in NASH fibrogenesis and extracellular matrix formation ([2]; 2.5% gel, Monocyte Chemoattractant Protein-1, Osteonectin, α-SMA, Collagen 1a1, Collagen 3a1, Collagen 4a1): significantly downregulated
candidate genes whose expression may be predictive for poor outcomes like liver cirrhosis and cancer ([2]; conclusion, dose not specified): favorably regulated
body adiposity (percent body weight) [3, 8]: significantly reduced
body weight (percent baseline body weight) [3, 8]: significantly reduced
total body weight or body fat ([3]; lower doses at which fibrosis changes were observed, topical): no or minimal effect
plasma alanine transaminase (ALT) (units/L) ([4]; 0.75% gel): reduction
plasma aspartate transaminase (AST) (units/L) ([4]; 0.75% gel): reduction
plasma alanine transaminase (ALT) (units/L) ([4]; 2.5% gel): reduction
plasma aspartate transaminase (AST) (units/L) ([4]; 2.5% gel): reduction
serum ALT and AST ([4]; conclusion, after topical dosing, dose not specified): marked decrease
liver triglyceride content [5]: significantly reduced
